{"source": "paper PMC2362650", "about": "“Phase I and pharmacokinetic study of the topoisomerase II catalytic inhibitor fostriecin” (British Journal of Cancer, 1999)", "key": {"GLC4/VM20x": {"test_system": "GLC4/VM20x", "design": "method as in Withoff et al, 1996", "details": "ref Withoff et al, 1996; cited from earlier work"}, "[1]": {"assay": "Plasma and urine pharmacokinetics (HPLC-UV) in patients after 60-min IV infusion", "type": "in vivo, human", "details": "patients who received 12.2 mg m-2 (and above) fostriecin", "text": "Fostriecin (CI-920) is a topoisomerase (topo) II catalytic activity inhibitor (Boritzki et al, 1988) (Figure 1). This novel class of topo II-targeting drugs is considered of potential value for treatment of patients with tumours resistant to classic topo II poisons, including anthracyclines and podophyllotoxins (Cummings and Smyth, 1993). The nuclear enzyme topo II is essential for the regulation of DNA conformation (reviewed in Osheroff et al, 1991). Central in its action is the formation of a complex with DNA. Stabilization of this complex by topo II poisons induces DNA damage and cell death (Froelich-Ammon and Osheroff, 1995). Decreased complex formation due to decreased topo II levels is considered to be an important mechanism of tumour-resistance to topo II poisons (Beck and Danks, 1991). The topo II catalytic inhibitor fostriecin is expected to have increased activity against tumour cells with low topo II levels and this was confirmed in in vitro studies (De Jong et al, 1991). […] Because of increased toxi- city of fostriecin in dogs compared to mice, a dose below one-third of the one-tenth mouse equivalent LD10, 2 mg m-2 day-1, was chosen as starting dose in humans (Clinical Brochure Fostriecin, 1991). […] We also performed an analysis of the human pharmacokinetics of fostriecin and ex vivo experiments to investigate if the plasma drug concentrations achieved were sufficient to inhibit a tenipo- side-resistant tumour cell line. The maximum tolerated dose (MTD) of fostriecin could not be established because drug supply was stopped prematurely. However, results of this study may provide a basis for continued clinical development of this agent. PATIENTS AND METHODS Patient selection, drug administration and evaluation Patient eligibility criteria were: histologically confirmed diagnosis of a solid tumour, no longer amenable to established forms of treatment; age 18-75 years; Eastern Cooperative Oncology Group (ECOG) performance status 2; life expectancy 12 weeks; no Phase I and pharmacokinetic study of the topoisomerase II catalytic inhibitor fostriecin RS de Jong1, NH Mulder1, DRA Uges2, DTh Sleijfer1, FJP Hoppener4, HJM Groen3, PHB Willemse1, WTA van der Graaf1 and EGE de Vries1 Departments of 1Medical Oncology, 2Pharmacy and Toxicology, and 3Pulmonary Diseases, University Hospital Groningen, The Netherlands; 4EORTC New Drug Development Office, Amsterdam, The Netherlands Summary We conducted a phase I and pharmacokinetic study of the topoisomerase II catalytic inhibitor fostriecin. Fostriecin was administered intravenously over 60 min on days 1-5 at 4-week intervals. Dose was escalated from 2 mg m-2 day-1 to 20 mg m-2 day-1 in 20 patients. Drug pharmacokinetics was analysed with high performance liquid chromatography with UV-detection. Plasma collected during drug administration was tested in vitro for growth inhibition of a teniposide-resistant small-cell lung cancer (SCLC) cell line. The predominant toxicities were elevated liver transaminases (maximum common toxicity criteria (CTC) grade 4) and serum creatinine (maximum CTC grade 2). […] Duration of elevated alanine-amino transferase (ALT) was dose-limiting in one patient at 20 mg m-2. Other frequent toxicities were grade 1-2 nausea/vomiting, fever and mild fatigue. […] A metabolite, most probably dephosphorylated fostriecin, was detected in plasma and urine. […] However, further escalation seems possible and is warranted to achieve potentially effective drug levels. Fostriecin has a short plasma half-life and longer duration of infusion should be considered. […]"}}}
{"compound": "COc1cc([C@@H]2c3cc4c(cc3[C@@H](O[C@@H]3O[C@@H]5CO[C@@H](c6cccs6)O[C@H]5[C@H](O)[C@H]3O)[C@H]3COC(=O)[C@H]23)OCO4)cc(OC)c1O", "note": "[teniposide, reference compound]", "values": [{"measurement": "acquired resistance of GLC4/VM20x compared to GLC4", "setting": "GLC4/VM20x", "result": 20, "unit": "fold"}]}
{"compound": "C[C@@](O)(/C=C/[C@H]1CC=CC(=O)O1)[C@H](O)C[C@@H](O)\\C=C/C=C\\C=C\\CO", "note": "[dephosphorylated fostriecin]", "values": [{"measurement": "metabolite in plasma and urine", "setting": "[1]", "result": "detected"}]}
